Assay: Stability of the crystal form on stirring as suspension in solvent (40° C., 2 days)
Assay type: physicochemical
Conditions: stirring in methanol at 40° C. for 2 days
In short: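 Suspensions of compound in acetonitrile-water (1:1), ethyl acetate, methanol or ethanol stirred in the dark at 40° C. for 2 days, centrifuged, solids vacuum-dried at 30° C. overnight (room temperature for formula (II)). Some samples first dissolved under ultrasound and partly evaporated. Resulting crystal form identified by XRPD, with DSC and TGA.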

stability in the methanol solution | Compound
substantially high stability | C=CC(=O)N[C@H]1COC[C@H]1Nc1ncc(/C=C(\F)c2c(Cl)c(OC)cc(OC)c2Cl)cn1.CS(=O)(=O)O [Crystal Form E]
substantially high stability | C=CC(=O)N[C@H]1COC[C@H]1Nc1ncc(/C=C(\F)c2c(Cl)c(OC)cc(OC)c2Cl)cn1 [Crystal Form B]

From patent US11440903B2, “Salt form and crystal form of compound as FGFR4 inhibitor and preparation method thereof” (GUANGDONG ZHONGSHENG PHARMACEUTICAL CO., LTD, priority 2017, dated 2022)
